One assay deals with SW480. In words: Antitumor activity against human SW480 cells xenografted in CB17/SCID mouse assessed as inhibition of tumor growth at 150 to 300 mg/kg after 3 weeks. The format is functional. Background: In xenograft studies the graft and the host belong to different species.
The target in assay [1] is T1, Poly [ADP-ribose] polymerase tankyrase-1 (Homo sapiens) (UniProt O95271).
T1 sequence (whole entry): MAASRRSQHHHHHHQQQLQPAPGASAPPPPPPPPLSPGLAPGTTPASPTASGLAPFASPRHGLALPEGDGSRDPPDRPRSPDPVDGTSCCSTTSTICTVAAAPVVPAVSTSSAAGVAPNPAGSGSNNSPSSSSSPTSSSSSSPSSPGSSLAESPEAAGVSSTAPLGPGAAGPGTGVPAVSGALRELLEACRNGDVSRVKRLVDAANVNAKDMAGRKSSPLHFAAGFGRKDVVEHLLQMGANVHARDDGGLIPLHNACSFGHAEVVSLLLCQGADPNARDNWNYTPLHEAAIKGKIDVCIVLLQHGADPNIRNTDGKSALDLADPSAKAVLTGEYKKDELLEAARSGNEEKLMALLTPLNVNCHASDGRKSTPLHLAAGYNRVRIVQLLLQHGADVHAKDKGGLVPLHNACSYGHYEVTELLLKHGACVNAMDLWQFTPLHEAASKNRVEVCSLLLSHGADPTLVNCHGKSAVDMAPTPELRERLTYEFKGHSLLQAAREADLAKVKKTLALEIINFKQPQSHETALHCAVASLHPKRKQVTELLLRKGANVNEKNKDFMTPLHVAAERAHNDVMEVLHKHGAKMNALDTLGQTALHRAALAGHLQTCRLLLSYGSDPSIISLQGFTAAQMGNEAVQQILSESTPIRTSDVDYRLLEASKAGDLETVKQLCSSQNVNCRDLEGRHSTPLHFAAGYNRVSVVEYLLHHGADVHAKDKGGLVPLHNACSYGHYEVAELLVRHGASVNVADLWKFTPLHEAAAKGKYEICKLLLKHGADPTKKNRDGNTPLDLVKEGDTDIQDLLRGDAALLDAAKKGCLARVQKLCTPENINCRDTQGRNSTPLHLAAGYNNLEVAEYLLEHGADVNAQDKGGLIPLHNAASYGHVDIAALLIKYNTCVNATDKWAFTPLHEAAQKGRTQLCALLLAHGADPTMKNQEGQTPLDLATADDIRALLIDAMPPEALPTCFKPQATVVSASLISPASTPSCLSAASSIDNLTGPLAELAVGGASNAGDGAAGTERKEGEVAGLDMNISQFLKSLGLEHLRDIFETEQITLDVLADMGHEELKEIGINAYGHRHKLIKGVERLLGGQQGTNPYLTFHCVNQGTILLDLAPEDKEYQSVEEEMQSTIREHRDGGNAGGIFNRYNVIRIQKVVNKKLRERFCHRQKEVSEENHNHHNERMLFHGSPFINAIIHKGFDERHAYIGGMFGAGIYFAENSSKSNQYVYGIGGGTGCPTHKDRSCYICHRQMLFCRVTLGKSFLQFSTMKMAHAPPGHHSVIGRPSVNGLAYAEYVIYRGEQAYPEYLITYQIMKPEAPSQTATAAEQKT
In words: Inhibition of TNKS1 (unknown origin) at 0.5 uM by colorimetric method.

Another assay relates to MCF7. In words: Growth inhibition of human MCF7 cells incubated for 24 hrs by MTT assay. The following applies: MCF7, 24 h. It is filed as functional, cell-based. For orientation: Formazan colour is commonly taken as a measure of viable cells.
Assay [2] is described as follows: Inhibition of Wnt/beta-catenin pathway (unknown origin) expressed in HEK293 cells by Wnt-responsive super-topflash luciferase reporter assay. It is filed as cell-based. The following applies: Homo sapiens. On the technique in general: A reporter such as luciferase makes a cellular process visible.
Assay [3] addresses T2, Poly [ADP-ribose] polymerase tankyrase-1 (Homo sapiens, UniProt O95271).
T2 sequence (O95271 whole entry): T1 sequence (whole entry)
Kind of assay: Inhibition of TNKS1 (unknown origin).

Assay [4] addresses T2, Poly [ADP-ribose] polymerase tankyrase-1.
Description: Inhibition of human TNKS1 (1030 to 1317 residues) by fluorescence based activity assay

For orientation: TGI means the reduction of tumour growth relative to the control group. Consider `COc1ccc(-n2c(SCc3nc(-c4ccc(C)cc4)no3)nnc2-c2ccncc2)cc1`, for which, in the assay with SW480, the TGI was determined as 30%.
The term inhibition denotes the share of the control response that was lost under treatment. High values mean a strong effect, low ones a weak effect. One may read the IC50 as the concentration that inhibits the measured activity by half. Higher therefore signals weaker potency in that assay. Regarding `Cc1c(Cl)cccc1NC(CC(=O)c1ccccc1)C(=O)OCC(=O)c1ccc([N+](=O)[O-])cc1` (centres undefined), the inhibition in assay [1] turned out to be 60%. In addition, in the assay on MCF7, inhibition was half-maximal at 5 µM (IC50).
A word on the EC50: it is the concentration giving half of the maximal effect. A higher EC50 goes with a need for much substance. In the case of `O=C(NC1CCCC1)c1ccc(Cn2c(=O)c3ccccc3n(Cc3cc(=O)n4ccccc4n3)c2=O)cc1`, the EC50 in assay [2] fell in the range of 0.18 to 2 µM.
As for `Cc1cccc2nc(Cn3c(=O)n(CC4CCC(C(=O)NCc5ccccc5)CC4)c(=O)c4ccccc43)cc(=O)n12` (centres undefined), the concentration giving a half-maximal response (EC50) in assay [2] lay within 0.18 to 2 µM.
Still for that read-out and setting: for `N#Cc1ccccc1Cn1c(=O)n(CC2CCC(C(=O)NCc3ccccc3)CC2)c(=O)c2ccccc21` (centres undefined) the value was 0.18 to 2 µM.
As for `Cn1c(-c2ccc(Cl)cc2Cl)nc(=O)c2cccnc21`, the IC50 in assay [3] was found to be 11 µM.
In turn, `O=C(Nc1cccc2cccnc12)c1ccc(C2C(=O)[C@@H]3[C@H](C2=O)[C@@H]2C=C[C@H]3C2)cc1` (some centres undefined) came in with an EC50 in assay [2] of 0.18 to 2 µM.
In assay [4], `CC(C)(C)c1ccc(-c2nc3ccccc3c(=O)[nH]2)cc1` showed an IC50 of 0.005 µM.
